Measurements from BindingDB's records for doi:10.7270/Q23R0R8T (Burnham Center For Chemical Genomics, 2010).

target: Nucleotide-binding oligomerization domain-containing protein 2 (Homo sapiens, UniProt Q9HC29); experiment: NOD2 signaling inhibitors in MDP-stimulated cells, cell-based, uHTS, luminescence (AID 2001)
Sequence (Q9HC29 whole entry, the tested form may be a part): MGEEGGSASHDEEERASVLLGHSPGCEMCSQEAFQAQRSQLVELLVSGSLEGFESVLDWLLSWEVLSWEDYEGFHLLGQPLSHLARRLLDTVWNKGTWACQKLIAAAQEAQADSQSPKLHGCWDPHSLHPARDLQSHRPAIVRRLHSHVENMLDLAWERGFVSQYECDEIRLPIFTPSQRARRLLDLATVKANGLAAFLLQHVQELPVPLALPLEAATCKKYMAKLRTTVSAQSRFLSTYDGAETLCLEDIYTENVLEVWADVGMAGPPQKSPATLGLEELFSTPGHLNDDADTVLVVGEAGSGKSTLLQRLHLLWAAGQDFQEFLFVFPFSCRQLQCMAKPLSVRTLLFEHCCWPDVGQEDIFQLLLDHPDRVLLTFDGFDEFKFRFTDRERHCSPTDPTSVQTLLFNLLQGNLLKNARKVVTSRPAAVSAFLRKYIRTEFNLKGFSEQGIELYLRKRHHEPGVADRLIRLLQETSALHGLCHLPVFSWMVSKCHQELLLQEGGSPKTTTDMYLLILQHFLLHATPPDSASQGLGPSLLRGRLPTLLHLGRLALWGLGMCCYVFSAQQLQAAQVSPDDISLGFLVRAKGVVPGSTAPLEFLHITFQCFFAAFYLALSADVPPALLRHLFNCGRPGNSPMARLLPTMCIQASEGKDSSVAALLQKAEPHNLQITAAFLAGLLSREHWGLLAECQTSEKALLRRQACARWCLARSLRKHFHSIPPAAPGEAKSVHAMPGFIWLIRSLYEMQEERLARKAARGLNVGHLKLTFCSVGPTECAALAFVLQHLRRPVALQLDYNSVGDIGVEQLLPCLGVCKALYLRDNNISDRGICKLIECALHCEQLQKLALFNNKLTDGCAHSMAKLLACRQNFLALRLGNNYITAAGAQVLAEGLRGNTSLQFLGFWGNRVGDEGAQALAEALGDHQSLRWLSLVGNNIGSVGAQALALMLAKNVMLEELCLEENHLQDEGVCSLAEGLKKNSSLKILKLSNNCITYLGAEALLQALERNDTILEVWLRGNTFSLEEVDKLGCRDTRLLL

| SMILES | IC50 [µM] |
| --- | --- |
| Cc1cc(CN=Nc2ncnc(N)c2[N+](=O)[O-])c(C)n1-c1ccccc1 | 6.1 |
| Cc1cc(SCC(=O)OCC(=O)C(C#N)c2nc3ccccc3[nH]2)c(C)cc1Br (stereo unspecified) | 5.41 |
| O=C1C(=O)N(c2nccs2)C(c2ccccc2)C1C(=O)c1ccc2c(c1)OCCO2 (stereo unspecified) | 18.6 |
| CCCOC1=CC(=O)C(C=NNC(=S)Nc2ccccc2[N+](=O)[O-])C=C1 (stereo unspecified) [1-(2-nitrophenyl)-3-[[(E)-(6-oxo-4-propoxy-1-cyclohexa-2,4-dienylidene)methyl]amino]thiourea] | 0.233 |
| C=CCN1C(=O)C(=NNC(=S)Nc2cccc(C)c2)c2ccccc21 [1-(3-methylphenyl)-3-[(Z)-(2-oxidanylidene-1-prop-2-enyl-indol-3-ylidene)amino]thiourea] | 1.18 |
| CCCCCCC1=Cc2c/c(=C3/NN=C(c4ccccc4OC)O3)c(=O)oc2=CC1=O [6-Hexyl-7-hydroxy-3-[5-(2-methoxy-phenyl)-[1,3,4]oxadiazol-2-yl]-chromen-2-one] | 8.48 |
| CCCCCCC1=Cc2c/c(=C3/NN/C(=C4/C=CC=CC4=O)O3)c(=O)oc2=CC1=O [(3E)-6-hexyl-3-[(5E)-5-(6-oxocyclohexa-2,4-dien-1-ylidene)-1,3,4-oxadiazolidin-2-ylidene]chromene-2,7-dione] | 4.36 |
| Cc1ccc(O)c(/N=C/C2=CC(Cc3ccccc3)C=C([N+](=O)[O-])C2=O)c1 (stereo unspecified) [(6E)-6-[[(5-methyl-2-oxidanyl-phenyl)amino]methylidene]-2-nitro-4-(phenylmethyl)cyclohexa-2,4-dien-1-one] | 12.4 |
| Cc1ccc(C)c(SCC(=O)OCC(=O)C(C#N)c2nc3ccccc3[nH]2)c1 (stereo unspecified) [MLS000392255] | 4.92 |
| Cc1cc(CN=Nc2nc(N)ncc2[N+](=O)[O-])c(C)n1-c1ccccc1F [MLS000392273] | 6.02 |
| COc1ccc(NS(=O)(=O)c2ccc(N=NC(C)c3ccncc3)c([N+](=O)[O-])c2)cc1 (stereo unspecified) [MLS000393523] | 2.11 |
| C=CCN1C(=O)C(=NNC(=S)Nc2cccc(OC)c2)c2ccccc21 [SMR000132469] | 1.76 |
| CCOc1ccc(-c2csc(/C(C#N)=C/C3C=CC(=O)C([N+](=O)[O-])=C3)n2)cc1 (stereo unspecified) [SMR000237723] | 2.58 |
| CN1C(=O)C(=NNC(=S)Nc2ccccc2F)c2cc(S(=O)(=O)N3CCOCC3)ccc21 [SMR000314843] | 9.77 |
| Cc1cc(N=NCc2ccccc2[N+](=O)[O-])nc(-n2nc(C)cc2C)n1 [SMR000426946] | 6.55 |
| COc1cc(CN=Nc2nc3c(c(=O)n(C)c(=O)n3C)n2Cc2ccccc2)ccc1OC(=O)c1ccco1 [[4-[[(7-benzyl-1,3-dimethyl-2,6-dioxopurin-8-yl)hydrazinylidene]methyl]-2-methoxyphenyl] furan-2-carboxylate] | 5.98 |
